Experiment in all cases: NCI anticancer screen, dose series, 48 h
For test [1], the system named is SK-OV-3 ovarian.
Test [2] deals with PC-3 prostate.
Test [3] concerns NCI-H23 lung.
Test [4] deals with ACHN renal.
Test [5] has as its system MDA-MB-231 breast.
The subject of test [6] is KM12 colon.
For test [7], the system named is MOLT-4 leukemia.
Test [8] relates to HCC-2998 colon.
Test [9] relates to HL-60(TB) leukemia.
Test [10] concerns NCI-H522 lung.
In test [11] the test system is SNB-19 CNS.
For test [12], the system named is MALME-3M melanoma.
For test [13], the system named is CCRF-CEM leukemia.
The subject of test [14] is NCI/ADR-RES ovarian.
Test [15] concerns MDA-N.
In test [16] the test system is OVCAR-4 ovarian.
Test [17] concerns NCI-H226 lung.
The subject of test [18] is OVCAR-5 ovarian.
In test [19] the test system is SF-295 CNS.
The test system of test [20] is SR leukemia.

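Growth conditions: 96-well plates. Treatment: test compound, 48 hours, 5 concentrations. Analysis: linear interpolation between bracketing concentrations; unreached endpoints set to highest concentration. The concentration for full growth arrest is given as TGI.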

As for `O=S(=O)(SC1=NCCN1)c1ccc2ccccc2c1`, the TGI in test [1] was 54.7 µM; in [2], above 100 µM; in test [3], 61.8 µM; in [4] it was above 100 µM; in test [5], 42.9 µM; in test [6], 44.1 µM. For the same compound, the TGI in test [7] is 56.8 µM; in test [8] it was 38.7 µM; in test [9] it was 38.4 µM; in test [10] it was 46.3 µM; in test [11], 39.1 µM; in test [12], above 100 µM. Further, the TGI in test [13] is 68 µM; in [14], 51.8 µM; in test [15], 43.9 µM; in test [16], above 100 µM; in test [17] it was 98 µM; in test [18] it was 49.6 µM. For the same compound, the TGI in test [19] turned out to be 65.8 µM.

On to `O=P1(O)c2ccccc2CCc2ccccc21`, for which the TGI in test [1], in test [2], in [3], in test [5], in test [6] and in [7] was above 100 µM in each case. Moreover, the TGI in test [8], in test [10], in test [11], in test [13], in test [15] and in test [17] was above 100 µM throughout. The same compound came in with a TGI in test [19] above 100 µM.

As for `COc1ccc(C[C@@H](CO)NC2=C(C#N)CCC2)cc1`, the TGI was above 100 µM in [1]; above 100 µM in test [2]; above 100 µM in [3]; above 100 µM in test [4]; above 100 µM in test [5]; 63.5 µM in test [6]. Further, the TGI is above 100 µM in test [7]; above 100 µM in test [8]; 27.8 µM in test [9]; above 100 µM in [11]; above 100 µM in [12]; above 100 µM in test [13]. The TGI in test [14], in [15], in [16], in test [17], in test [18] and in test [19] was above 100 µM each time.

On to `CC(=N)OC1CC2CCC1(C)C2(C)C` (stereo not given), for which the TGI in test [1], in test [2], in [3], in test [4], in test [5] and in [6] was above 100 µM each time. For the same compound, the TGI in [7], in test [20], in test [8], in test [9], in test [10] and in [12] was above 100 µM throughout. In addition, the TGI in [13], in [15], in test [16], in [17], in [18] and in test [19] was above 100 µM each time.

`COc1ccccc1NC(=S)Nc1cc(C)cc(C)n1`: the TGI in test [1], in test [2], in test [3], in test [4], in [5] and in test [6] was above 100 µM each time. The TGI in [7], in test [8], in [9], in test [11], in test [12] and in test [13] was above 100 µM in each case. Further, the TGI in test [14], in [15], in test [16], in test [17], in test [18] and in test [19] was above 100 µM throughout.

Consider `CCOC(=O)CCCNC(=O)CCCCC(=O)N(C)C`, for which the TGI in test [1], in test [2], in test [3], in test [4], in test [5] and in test [6] was above 100 µM throughout. In addition, the TGI in test [7], in [8], in test [9], in test [10], in [11] and in test [12] was above 100 µM in each case. The TGI in test [13], in test [14], in [15], in test [17], in test [18] and in [19] was above 100 µM in each case.

As for `COC(=O)c1cc(C)ccc1C1CN=NC12Cc1ccc(C)cc1C2=O` (stereo not given), the TGI in [1], in test [2], in test [3], in test [4], in [5] and in test [6] was above 100 µM in each case. Moreover, the TGI was 80.6 µM in [7]; above 100 µM in test [8]; 37.5 µM in test [9]; 98.9 µM in test [10]; above 100 µM in [11]; above 100 µM in [12]. Moreover, the TGI in [13], in test [14], in test [15], in test [16], in [17] and in test [18] was above 100 µM throughout. The compound also came in with a TGI in [19] above 100 µM.

On to `CO/C(N)=C(\C#N)N=Cc1ccco1`, for which the TGI in test [1], in test [2], in test [3], in test [4], in test [5] and in test [6] was above 100 µM in each case. The TGI in [7], in test [8], in test [9], in [10], in test [12] and in [13] was above 100 µM each time. For the same compound, the TGI in test [14], in [15], in [16], in test [17], in test [18] and in [19] was above 100 µM in each case.

For `CN1CCN(c2ccc3[nH]c(-c4cc(O)c5c(nc(CO)n5C)c4O)nc3n2)CC1`, the TGI was above 100 µM in test [1]; above 100 µM in test [2]; above 100 µM in test [3]; above 100 µM in test [4]; 63.1 µM in test [5]; above 100 µM in test [6]. In addition, the TGI in test [7] was 48.2 µM; in test [8] it was above 100 µM; in test [9] it was 47.2 µM; in test [10] it was above 100 µM; in test [11], above 100 µM; in test [12] it was 65.4 µM. In addition, the TGI in test [13] is 58.6 µM; in [14], above 100 µM; in test [15] it was above 100 µM; in test [16] it was above 100 µM; in test [17], 96.5 µM; in test [18] it was above 100 µM. The compound further yielded a TGI in test [19] above 100 µM.

Regarding `CC(C)(C)C(=O)OCOP(=O)(OCOC(=O)C(C)(C)C)OCC1OC(n2ccc(=O)[nH]c2=O)C(N=[N+]=[N-])C1O` (stereo not given), the TGI in test [2] was found to be 14.1 µM; in test [3] it was 16.3 µM; in test [4], 17.8 µM; in test [5], 21.1 µM; in [6] it was 12.8 µM; in test [7] it was 31.4 µM. For the same compound, the TGI came out at 13.4 µM in test [8]; 4.84 µM in test [9]; 17.5 µM in [10]; 25.7 µM in test [11]; 1.57 µM in [12]; 13.3 µM in [13]. For the same compound, the TGI is 23.5 µM in test [14]; 15.8 µM in [15]; 14 µM in test [16]; 22 µM in [17]; 16.1 µM in test [18]; 25.4 µM in [19].

On to `C/C(Cl)=N/OC(=O)Nc1ccc(S(N)(=O)=O)c(C)c1`, for which the TGI in test [1] was above 58.3 µM; in test [2], 32.3 µM; in test [3], 39.3 µM; in [4], 5.37 µM; in test [5] it was 22 µM; in [6], 41.2 µM. Moreover, the TGI in test [7] is 6.12 µM; in [8] it was 32.7 µM; in test [9], 3.05 µM; in test [10], 3.45 µM; in test [11], 32.3 µM; in [12], 4.5 µM. For the same compound, the TGI was 3.99 µM in test [13]; above 55.5 µM in test [14]; 24.4 µM in [15]; 29.3 µM in [16]; 47.6 µM in test [17]; 34.4 µM in test [18]. Also, in [19], the TGI stood at 45.3 µM.

As for `COc1ccc(/C=C2\CCC(C)C3C2=NN(c2ccccc2)C3c2ccc(OC)c(OC)c2)cc1OC` (stereo not given), the TGI in test [1] is 20.2 µM; in [2], 51.6 µM; in test [3] it was 16.9 µM; in [4] it was 14.6 µM; in test [5], 12.5 µM; in test [6], 6.46 µM. Moreover, the TGI in test [7] was determined as 11 µM; in test [9], 7.07 µM; in [11], 36.2 µM; in test [12] it was 16.7 µM; in [13], 10.2 µM; in test [14], 18.3 µM. The TGI in test [15] came out at 29.2 µM; in [17], 12.9 µM; in test [18] it was 24 µM; in test [19] it was 7.55 µM.

With `CCCC/C=C/C/C=C/CCCCCCCCC(=O)OCC1CCCN2CCCCC12` (stereo not given), the TGI in [1], in test [2], in [3], in [4], in test [5] and in test [6] was above 100 µM in each case. For the same compound, the TGI in [7], in test [8], in test [9], in test [11], in test [12] and in test [13] was above 100 µM in each case. The TGI in test [14], in [15], in test [16], in test [17], in test [18] and in test [19] was above 100 µM each time.

For the compound `C[N+](C)(C)CCCSc1nc2ccccc2[nH]1`, the TGI in test [1], in test [2], in test [3], in test [4], in test [5] and in test [6] was above 100 µM in each case. Moreover, the TGI in test [7], in test [8], in test [9], in test [10], in test [11] and in test [12] was above 100 µM each time. Also, the TGI in test [13], in [14], in test [15], in test [16], in [17] and in test [18] was above 100 µM each time. The compound further yielded a TGI in [19] above 100 µM.

Take `O=c1cc(N2CCNCC2)nc2ccccn12`: the TGI in [1], in test [2], in test [3], in test [4], in test [5] and in [6] was above 100 µM each time. For the same compound, the TGI in test [7], in test [8], in test [9], in test [10], in [11] and in test [12] was above 100 µM each time. The TGI in test [13], in test [14], in test [15], in [17], in [18] and in test [19] was above 100 µM in each case.

With `Cc1ccc(S(=O)(=O)c2ccsc2NC(=O)C(F)(F)F)cc1`, the TGI in test [1] was above 100 µM; in test [2] it was above 100 µM; in test [3], above 100 µM; in [4], above 100 µM; in [5], 56.2 µM; in test [6], above 100 µM. In addition, the TGI in [7] is 45.9 µM; in test [8], above 100 µM; in test [10] it was above 100 µM; in [11], above 100 µM; in test [12], above 100 µM; in [14] it was above 100 µM. For the same compound, the TGI in test [15] was 98.9 µM; in test [16], above 100 µM; in [17], above 100 µM; in [18] it was above 100 µM; in test [19], above 100 µM.

The values are drawn from PubChem BioAssay (NCI).
